Test results: patent US20240124412A1, “IKAROS ZINC FINGER FAMILY DEGRADERS AND USES THEREOF” (Gilead Sciences, Inc., priority 2021, published 2024)

Experiments:
IKZF1 = target: T1, IKZF1 (Homo sapiens, UniProt Q13422+Q96SW2); assay: HiBiT protein tagging assay, in vitro IKZF1 degradation (HEK293); type: cell-based; settings: HEK293, 18-24 hr incubation, normalized to DMSO control; for Dmax: read-out: IKZF1 Dmax (maximum degradation at the highest concentration tested); for DC50: read-out: IKZF1 EC50
T1 construct: expressed in transfected cells
Experimental: (§1) In vitro degradation of IKZF1 and IKZF2 was measured using HiBiT protein tagging and detection technology (Promega).
(§2) HiBiT technology (Promega) was used to develop the quantitative assays to measure the cellular IKZFs level by tagging an 11 amino acid HiBit peptides VSGWRLFKKIS (SEQ ID NO:1) to the protein of interest. Reporter plasmids were generated by fusing a linker sequence (GSSGGSSG; SEQ ID NO:2) followed by the HiBiT tag at the C terminus of IKZF1 and IKZF2. The fusion fragments were subsequently cloned into pcDNA5 pcDNA™5/FRT/TO plasmids (Thermo Fisher, cat #V652020) downstream of the Tetracycline operator. The resulting plasmids were co-transfected with pOG44 Flp-Recombinase Expression Vector (Thermo Fisher, cat #V600520) into Flp-In™ T-REx HEK293 line (Thermo Fisher, cat #R78077) and a stable cell pool was selected by adding 100 μg/ml of Hygromycin (Thermo Fisher, cat #10687010). The reporter cell enabled Tet-On inducible reporter expression from a single copy of the integrated gene.
(§3) On Day 1, Cells were grown to ˜80% confluency in TC medium (DMEM Glutamax (Gibco10569), 10% Tet free FBS (Takara 631106), and PenStrep Glutamin (Gibco 10378)) in tissue culture flasks. Doxycycline was then added to a final concentration of 1 μg/ml to induce reporter expression at 37° C. overnight.
(§4) On Day 2, 125 nL of serially-diluted solution of testing compounds were dispensed into 384-well white solid assay plates via ECHO acoustic liquid handler. Cells were lifted by 0.25% Trypsin (Gibco 25200) then pelleted by centrifugation (Beckman Avanti J-E) at 500×g for 5 min. Cell pellets were resuspended in TC medium at the concentration of 3e5/mL and 25 μL of cell suspension were added into each well of compound-spotted plates. The plates were returned to a 37° C. incubator overnight (18-24 hr).
(§5) On Day 3, assay plates were removed from the TC incubator and 25 μL of Nano-Glo lytic detection system (Promega, cat #N3030) was added to each well. Plates were incubated at r.t. for 3 min with shaking, and luminescence was read using an Envision reader (Perkin Elmer).
(§6) All raw data was normalized to DMSO control (final concentration: 0.5%) wells as POC and plotted out for EC50 and Dmax (Maximum degradation at the highest concentration tested in the assay).

IKZF2 = target: T2, IKZF2 (Homo sapiens, UniProt Q96SW2+Q9UKS7); assay: HiBiT protein tagging assay, in vitro IKZF2 degradation (HEK293); type: cell-based; settings: HEK293, 18-24 hr incubation, normalized to DMSO control; for Dmax: HEK293, HiBiT assay, read-out: IKZF2 Dmax (maximum degradation at the highest concentration tested); for DC50: HiBiT assay, read-out: IKZF2 EC50
T2 construct: expressed in transfected cells
Experimental: as §1, §2, §3, §4, §5, §6

T2 sequence (Q9UKS7 1-500 isoform Q9UKS7-2): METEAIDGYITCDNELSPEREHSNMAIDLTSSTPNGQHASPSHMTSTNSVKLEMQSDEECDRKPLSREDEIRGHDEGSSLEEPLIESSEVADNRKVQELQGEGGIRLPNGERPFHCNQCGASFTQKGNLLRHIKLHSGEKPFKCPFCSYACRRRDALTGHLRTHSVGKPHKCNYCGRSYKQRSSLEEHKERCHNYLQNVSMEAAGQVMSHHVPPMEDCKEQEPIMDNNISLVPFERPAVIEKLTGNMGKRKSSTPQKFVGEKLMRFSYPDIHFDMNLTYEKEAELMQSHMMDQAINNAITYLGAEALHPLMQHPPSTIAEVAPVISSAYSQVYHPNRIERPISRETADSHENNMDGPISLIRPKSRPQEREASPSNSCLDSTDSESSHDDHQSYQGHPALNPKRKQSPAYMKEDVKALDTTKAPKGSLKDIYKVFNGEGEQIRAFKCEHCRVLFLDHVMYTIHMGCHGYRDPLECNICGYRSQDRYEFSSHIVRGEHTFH
T2 sequence (Q96SW2 whole entry): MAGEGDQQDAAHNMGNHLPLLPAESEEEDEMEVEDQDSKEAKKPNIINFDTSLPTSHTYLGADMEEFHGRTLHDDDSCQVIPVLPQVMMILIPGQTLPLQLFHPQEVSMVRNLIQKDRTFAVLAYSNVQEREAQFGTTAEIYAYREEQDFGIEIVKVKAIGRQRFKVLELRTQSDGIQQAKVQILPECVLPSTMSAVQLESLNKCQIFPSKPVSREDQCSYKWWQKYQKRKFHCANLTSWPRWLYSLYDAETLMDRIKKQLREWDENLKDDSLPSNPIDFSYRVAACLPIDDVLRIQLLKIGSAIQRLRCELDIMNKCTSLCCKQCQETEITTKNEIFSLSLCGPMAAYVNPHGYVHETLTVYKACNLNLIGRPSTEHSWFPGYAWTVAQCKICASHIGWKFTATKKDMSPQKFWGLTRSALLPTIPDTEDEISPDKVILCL
T2 sequence (Q16531 whole entry partner): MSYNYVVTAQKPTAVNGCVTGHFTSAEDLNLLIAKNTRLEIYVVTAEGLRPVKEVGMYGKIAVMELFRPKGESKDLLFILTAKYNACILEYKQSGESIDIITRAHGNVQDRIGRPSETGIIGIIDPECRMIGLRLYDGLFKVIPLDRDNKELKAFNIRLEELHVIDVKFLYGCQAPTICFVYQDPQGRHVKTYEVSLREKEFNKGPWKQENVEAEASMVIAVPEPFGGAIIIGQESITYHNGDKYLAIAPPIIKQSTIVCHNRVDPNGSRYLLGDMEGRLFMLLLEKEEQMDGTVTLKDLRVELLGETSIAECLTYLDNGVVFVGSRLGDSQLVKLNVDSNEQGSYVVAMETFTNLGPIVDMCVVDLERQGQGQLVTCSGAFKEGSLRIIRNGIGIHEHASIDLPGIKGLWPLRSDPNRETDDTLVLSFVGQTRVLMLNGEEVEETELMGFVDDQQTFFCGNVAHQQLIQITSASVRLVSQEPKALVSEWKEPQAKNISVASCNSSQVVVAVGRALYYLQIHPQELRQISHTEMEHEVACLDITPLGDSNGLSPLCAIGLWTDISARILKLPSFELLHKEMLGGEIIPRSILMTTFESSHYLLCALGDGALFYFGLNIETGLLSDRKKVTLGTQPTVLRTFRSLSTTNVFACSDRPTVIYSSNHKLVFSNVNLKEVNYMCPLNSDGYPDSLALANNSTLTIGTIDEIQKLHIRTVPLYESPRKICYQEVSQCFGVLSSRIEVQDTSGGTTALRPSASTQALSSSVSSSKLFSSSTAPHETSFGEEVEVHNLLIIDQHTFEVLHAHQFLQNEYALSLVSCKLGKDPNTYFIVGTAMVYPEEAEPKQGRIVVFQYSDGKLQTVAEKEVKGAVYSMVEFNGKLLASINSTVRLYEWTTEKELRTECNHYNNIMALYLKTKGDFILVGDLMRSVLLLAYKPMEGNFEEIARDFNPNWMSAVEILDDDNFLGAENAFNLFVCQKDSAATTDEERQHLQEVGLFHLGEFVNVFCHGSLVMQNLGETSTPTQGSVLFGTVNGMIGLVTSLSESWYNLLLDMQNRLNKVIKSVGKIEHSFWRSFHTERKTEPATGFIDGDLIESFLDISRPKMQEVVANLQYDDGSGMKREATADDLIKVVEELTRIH
T1 sequence (Q13422 whole entry): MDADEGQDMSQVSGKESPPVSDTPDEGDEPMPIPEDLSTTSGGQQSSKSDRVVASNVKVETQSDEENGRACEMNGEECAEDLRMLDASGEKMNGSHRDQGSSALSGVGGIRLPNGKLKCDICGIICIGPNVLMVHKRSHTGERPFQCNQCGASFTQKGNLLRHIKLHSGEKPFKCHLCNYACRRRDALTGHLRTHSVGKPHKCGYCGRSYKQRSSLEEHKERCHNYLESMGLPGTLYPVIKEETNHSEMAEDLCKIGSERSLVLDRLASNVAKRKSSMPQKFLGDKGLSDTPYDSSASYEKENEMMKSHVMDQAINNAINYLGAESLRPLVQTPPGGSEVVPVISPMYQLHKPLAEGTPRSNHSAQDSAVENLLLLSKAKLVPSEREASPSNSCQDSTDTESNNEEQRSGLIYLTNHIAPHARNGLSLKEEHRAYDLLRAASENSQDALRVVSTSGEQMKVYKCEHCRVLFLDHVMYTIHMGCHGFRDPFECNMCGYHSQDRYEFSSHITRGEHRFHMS
T1 sequence (Q96SW2 whole entry): as the sequence (Q96SW2 whole entry) above
T1 sequence (Q16531 whole entry partner): as the sequence (Q16531 whole entry partner) above

Row | Dmax (IKZF1) [%] | DC50 (IKZF1) [nM] | Dmax (IKZF2) [%] | DC50 (IKZF2) [nM] | Structure (SMILES)
1 | 78 | 25 | 36 | 110 | O=C1CCC(N2Cc3cc(CNCC4CCCc5ccccc54)ccc3C2=O)C(=O)N1 (centres unmarked) [Example 22, 3-(1-oxo-5-((((1,2,3,4-tetrahydronaphthalen-1-yl)methyl)amino)methyl)isoindolin-2-yl)piperidine-2,6-dione]
2 | 86 | 36 | 49 | 210 | O=C1CCC(N2Cc3cc(CNCC4CCc5ccccc5C4)ccc3C2=O)C(=O)N1 (centres unmarked) [Example 23, 3-(1-oxo-5-((((1,2,3,4-tetrahydronaphthalen-2-yl)methyl)amino)methyl)isoindolin-2-yl)piperidine-2,6-dione]
3 | 36 | 871 | 62 | 2000 | O=C1CCC(N2Cc3cc(CN[C@@H]4CCCN(C(=O)c5ccccc5)C4)ccc3C2=O)C(=O)N1 (stereo partly drawn) [Example 24, 3-(5-((((R)-1-benzoylpiperidin-3-yl)amino)methyl)-1-oxoisoindolin-2-yl)piperidine-2,6-dione]
4 | 38 | 84 | 39 | 1800 | O=C1CCC(N2Cc3cc(CNC4Cc5ccccc5N(Cc5ccccc5)C4)ccc3C2=O)C(=O)N1 (centres unmarked) [Example 25, 3-(5-(((1-benzyl-1,2,3,4-tetrahydroquinolin-3-yl)amino)methyl)-1-oxoisoindolin-2-yl)piperidine-2,6-dione]
5 | 97 | 1 | 97 | 7 | O=C1CCC(N2Cc3cc(CN[C@@H]4CCCN(Cc5ccccc5Cl)C4)ccc3C2=O)C(=O)N1 (stereo partly drawn) [Example 26, 3-(5-((((R)-1-(2-chlorobenzyl)piperidin-3-yl)amino)methyl)-1-oxoisoindolin-2-yl)piperidine-2,6-dione]
6 | 94 | 9 | 93 | 41 | C[C@@H](c1ccccc1)N1CCC[C@@H](NCc2ccc3c(c2)CN(C2CCC(=O)NC2=O)C3=O)C1 (stereo partly drawn) [Example 27, 3-(1-oxo-5-((((R)-1-((S)-1-phenylethyl)piperidin-3-yl)amino)methyl)isoindolin-2-yl)piperidine-2,6-dione]
7 | 94 | 5 | 93 | 29 | C[C@H](c1ccccc1)N1CCC[C@@H](NCc2ccc3c(c2)CN(C2CCC(=O)NC2=O)C3=O)C1 (stereo partly drawn) [Example 28, 3-(1-oxo-5-((((R)-1-((R)-1-phenylethyl)piperidin-3-yl)amino)methyl)isoindolin-2-yl)piperidine-2,6-dione]
8 | 58 | 102 | 20 | 665 | O=C1CCC(N2Cc3cc(CN[C@@H]4CCCN(CCc5ccccc5)C4)ccc3C2=O)C(=O)N1 (stereo partly drawn) [Example 29, 3-(1-oxo-5-((((R)-1-phenethylpiperidin-3-yl)amino)methyl)isoindolin-2-yl)piperidine-2,6-dione]
9 | 44 | 90 | 36 | 208 | O=C1CCC(N2Cc3cc(CN[C@@H]4CCCN(c5ccccc5)C4)ccc3C2=O)C(=O)N1 (stereo partly drawn) [Example 30, 3-(1-oxo-5-((((R)-1-phenylpiperidin-3-yl)amino)methyl)isoindolin-2-yl)piperidine-2,6-dione]
10 | 97 | 3 | 83 | 40 | O=C1CCC(N2Cc3cc(CN[C@H]4CC[C@@H](c5ccccc5)CC4)ccc3C2=O)C(=O)N1 (stereo partly drawn) [Example 31, 3-(1-oxo-5-((((1,4-cis)-4-phenylcyclohexyl)amino)methyl)isoindolin-2-yl)piperidine-2,6-dione]
11 | 48 | 54 | 85 | 71 | O=C1CCC(N2Cc3cc(CN[C@H]4CC[C@H](c5ccccc5)CC4)ccc3C2=O)C(=O)N1 (stereo partly drawn) [Example 32, 3-(1-oxo-5-((((1,4-trans)-4-phenylcyclohexyl)amino)methyl)isoindolin-2-yl)piperidine-2,6-dione]
